According to patent US8829007B2 (priority 2009, dated 2014):
Like-named read-outs stand apart in the source and are kept apart here.

Assays:
[1] = test system: influenza A virus (A/PR/8/34); assay: microbe, parasite or virus in culture; assay type: cell-based
[2] = test system: A/PR/8/34 influenza virus; assay: microbe, parasite or virus in culture; assay type: cell-based
[3] = Influenza A virus, PR/8, MDCK, MDCK cells infected with A/PR/8/34, cell protection (CPE), read-out: IC50 (mean all)
[4] = Influenza A virus, PR/8, MDCK, MDCK cells infected with A/PR/8/34, bDNA viral RNA, read-out: EC50 (mean all)
[5] = Influenza A virus, PR/8, MDCK, CPE assay, A/PR/8/34 infected MDCK cells, class symbols, read-out: IC50 (mean all)
[6] = Influenza A virus, PR/8, MDCK, bDNA assay, A/PR/8/34 influenza virus replication in MDCK cells, class symbols, read-out: EC50 (mean all)
[7] = Influenza A virus, PR/8, MDCK, mean all, A/PR/8/34 infected MDCK cells, CPE assay, read-out: IC50
[8] = Influenza A virus, PR/8, MDCK, mean all, A/PR/8/34 influenza virus in MDCK cells, bDNA assay, read-out: EC50
[9] = Influenza A virus, PR/8, MDCK, MDCK cells infected with A/PR/8/34, survival of infected cells, class symbols, read-out: IC50 (mean all)
[10] = Influenza A virus, PR/8, MDCK, MDCK cells infected with A/PR/8/34, replication of influenza virus (viral RNA, bDNA), class symbols, read-out: EC50 (mean all)

With `OC1CCCC1Nc1nc(-c2c[nH]c3ncc(Cl)cc23)ncc1F` (stereo not shown) [Compound 14, 2-(2-(5-chloro-1H-pyrrolo[2,3-b]pyridin-3-yl)-5-fluoropyrimidin-4-ylamino)cyclopentanol] as the molecule, how does the IC50 [1, 3] read?
Its IC50 is 5 to 20 µM.

What about the EC50 [2, 4] of the same molecule?
Its EC50 is < 5 µM.

With `CC=CC(=O)N1CCC[C@@H](CNc2nc(-c3c[nH]c4ncc(Cl)cc34)ncc2F)C1` [Compound 41, (S)-1-(3-((2-(5-chloro-1H-pyrrolo[2,3-b]pyridin-3-yl)-5-fluoropyrimidin-4-ylamino)methyl)piperidin-1-yl)but-2-en-1-one] as the molecule, how does the IC50 ([1]; Influenza A virus, PR/8, MDCK, read-out: IC50 (mean all)) read?
The IC50 was < 5 µM.

And the EC50 ([2]; Influenza A virus, PR/8, MDCK, read-out: EC50 (mean all))?
The EC50 was < 5 µM.

With `CCCOC(=O)NC1CCCC(Nc2nc(-c3c[nH]c4ncc(Cl)cc34)ncc2F)C1` (stereo not shown) [Compound 698] as the molecule, how does the IC50 ([1]; mean all, MDCK cells infected with A/PR/8/34, cell protection (CPE), read-out: IC50) read?
The IC50 was < 5 µM.

And the EC50 ([2]; mean all, bDNA viral RNA in MDCK cells infected with A/PR/8/34, read-out: EC50)?
The EC50 was < 5 µM.

With `COCCN1CCCC(Nc2nc(-c3c[nH]c4ncc(Cl)cc34)ncc2F)C1` (stereo not shown) [Compound 595] as the molecule, how does the IC50 [1, 5] read?
Its IC50 is < 5 µM.

What about the EC50 [2, 6] of the same molecule?
Its EC50 is < 5 µM.

Which IC50 [1, 7] does the source give for `CC(=O)N1CCC[C@H](Nc2nc(-c3c[nH]c4ncc(Cl)cc34)ncc2F)C1` [Compound 434] here?
The IC50 was < 5 µM.

And the EC50 [2, 8]?
Its EC50 is < 5 µM.

How did the IC50 [1, 5] turn out when `N#CCN1CCC[C@H](Nc2nc(-c3c[nH]c4ncc(Cl)cc34)ncc2F)C1` [Compound 669] was run?
The IC50 was < 5 µM.

What about the EC50 [2, 6] of the same molecule?
Its EC50 is < 5 µM.

Which results are given for `N[C@@H]1CCCC[C@H]1CNc1nc(-c2c[nH]c3ncc(Cl)cc23)ncc1F` (racemic) [Compound 555, N-((trans-2-aminocyclohexyl)methyl)-2-(5-chloro-1H-pyrrolo[2,3-b]pyridin-3-yl)-5-fluoropyrimidin-4-amine]?
IC50 [1, 9]: > 10 µM; EC50 [2, 10]: < 5 µM

For `O=C(OCCF)N1CCCC[C@@H]1CNc1nc(-c2c[nH]c3ncc(Cl)cc23)ncc1F` [Compound 180, (R)-2-fluoroethyl 2-((2-(5-chloro-1H-pyrrolo[2,3-b]pyridin-3-yl)-5-fluoropyrimidin-4-ylamino)methyl)piperidine-1-carboxylate], which IC50 [1, 3] is on record?
Its IC50 is < 5 µM.

What about the EC50 [2, 4] of the same molecule?
Its EC50 is < 5 µM.

How did the IC50 [1, 9] turn out when `O=C1NCCCC[C@@H]1Nc1nc(-c2c[nH]c3ncc(C(F)(F)F)cc23)ncc1F` [Compound 502, (S)-3-(5-fluoro-2-(5-(trifluoromethyl)-1H-pyrrolo[2,3-b]pyridin-3-yl)pyrimidin-4-ylamino)azepan-2-one] was run?
The IC50 was < 5 µM.

And the EC50 [2, 10]?
The EC50 was < 5 µM.

`O=C1NCCCC[C@@H]1Nc1ccnc(-c2c[nH]c3ncc(Cl)cc23)n1` [Compound 500] was tested. Which IC50 [1, 9] did it give?
The IC50 was < 5 µM.

What about the EC50 [2, 10] of the same molecule?
The EC50 was < 5 µM.

How did the IC50 [1, 7] turn out when `CCN1CCC[C@H](Nc2nc(-c3c[nH]c4ncc(Cl)cc34)ncc2F)C1=O` [Compound 460] was run?
Its IC50 is < 5 µM.

What about the EC50 [2, 8] of the same molecule?
The EC50 was < 5 µM.

Which IC50 [1, 7] does the source give for `CCCCC(=O)N1CCCC[C@@H]1CNc1nc(-c2c[nH]c3ncc(Cl)cc23)ncc1F` [Compound 326, (R)-1-(2-((2-(5-chloro-1H-pyrrolo[2,3-b]pyridin-3-yl)-5-fluoropyrimidin-4-ylamino)methyl)piperidin-1-yl)pentan-1-one] here?
Its IC50 is 5 to 20 µM.

What about the EC50 [2, 8] of the same molecule?
The EC50 was < 5 µM.

Which results are given for `COC(=O)N1CCCC[C@H]1CNc1nc(-c2c[nH]c3ncc(Cl)cc23)ncc1F` [Compound 166, (S)-methyl 2-((2-(5-chloro-1H-pyrrolo[2,3-b]pyridin-3-yl)-5-fluoropyrimidin-4-ylamino)methyl)piperidine-1-carboxylate]?
IC50 [1, 3]: 5 to 20 µM; EC50 [2, 4]: < 5 µM

Which IC50 ([1]; Influenza A virus, PR/8, MDCK, mean all, survival of A/PR/8/34 infected MDCK cells (CPE assay), read-out: IC50) does the source give for `CN1CCN([C@@H]2CCCC(Nc3nc(-c4c[nH]c5ncc(Cl)cc45)ncc3F)C2)C1=O` (stereo partly shown) [Compound 958] here?
The IC50 was < 5 µM.

What about the EC50 ([2]; Influenza A virus, PR/8, mean all, replication of A/PR/8/34 influenza virus (bDNA assay), read-out: EC50) of the same molecule?
Its EC50 is < 5 µM.

Which results are given for `O=C(c1ccc(F)cc1)N1CCCC[C@@H]1CNc1nc(-c2c[nH]c3ncc(Cl)cc23)ncc1F` [Compound 209, (R)-(2-((2-(5-chloro-1H-pyrrolo[2,3-b]pyridin-3-yl)-5-fluoropyrimidin-4-ylamino)methyl)piperidin-1-yl)(4-fluorophenyl)methanone]?
IC50 [1, 3]: < 5 µM; EC50 [2, 4]: < 5 µM

`CNC(=O)N1CCCC(Nc2nc(-c3c[nH]c4ncc(Cl)cc34)ncc2F)CC1` (stereo not shown) [Compound 506, 4-(2-(5-chloro-1H-pyrrolo[2,3-b]pyridin-3-yl)-5-fluoropyrimidin-4-ylamino)-N-methylazepane-1-carboxamide] was tested. Which IC50 [1, 9] did it give?
Its IC50 is < 5 µM.

And the EC50 [2, 10]?
Its EC50 is < 5 µM.

Which results are given for `O=C(C1CCC1)N1CCC[C@@H](Nc2nc(-c3c[nH]c4ncc(Cl)cc34)ncc2F)C1` [Compound 319]?
IC50 [1, 7]: > 20 µM; EC50 [2, 8]: < 5 µM
